Measurements: PMC4188250 (Biochemistry, 2014)
Like-named read-outs stand apart in the source and are kept apart here.

Experiments:
[1] = biological target: T1, Cytochrome P450 4A11 (Homo sapiens, UniProt Q02928); assay: UV-visible spectral binding titration
T1 sequence (Q02928 5-519): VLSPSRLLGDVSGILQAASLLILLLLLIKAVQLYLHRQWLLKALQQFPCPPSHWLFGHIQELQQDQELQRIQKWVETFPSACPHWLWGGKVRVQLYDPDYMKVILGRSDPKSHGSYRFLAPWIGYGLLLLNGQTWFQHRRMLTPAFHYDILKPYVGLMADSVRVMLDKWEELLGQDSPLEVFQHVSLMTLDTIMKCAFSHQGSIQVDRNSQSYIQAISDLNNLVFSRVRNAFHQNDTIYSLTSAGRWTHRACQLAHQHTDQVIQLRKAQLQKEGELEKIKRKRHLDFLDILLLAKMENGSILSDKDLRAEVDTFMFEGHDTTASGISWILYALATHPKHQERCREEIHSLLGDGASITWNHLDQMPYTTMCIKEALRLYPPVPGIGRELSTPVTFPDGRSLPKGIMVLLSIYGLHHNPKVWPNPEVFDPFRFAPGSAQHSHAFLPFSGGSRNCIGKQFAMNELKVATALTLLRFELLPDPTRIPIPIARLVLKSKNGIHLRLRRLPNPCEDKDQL

[2] = biological target: T1, Cytochrome P450 4A11; assay: UV-visible spectral binding titration; remark: listed apart in the source

Structure (SMILES) | Kd [1] [µM] | Kd [2] [µM]
O=C(O)CCCCCCCCCCCO [12-OH lauric acid] | 5.1 ± 2.1 | –
CCCCCCCCCCCC(=O)O [lauric acid, dodecanoic acid] | – | 6.7 ± 0.3
